Reference: PMC12396409, “Screening and hit evaluation of a microbial metabolite library against the pathogenic Plasmodium falciparum and Toxoplasma gondii parasites” (International Journal for Parasitology: Drugs and Drug …, 2025)
Where two headings read alike, the source gives them in different places.

Assays:
[1] = test system: T. gondii RH strain (RH-Tub-eYFP) tachyzoites; test: microbe, parasite or virus in culture; format: cell-based, Toxoplasma gondii; settings: 72 h, % growth; for percent parasite growth at 2 µg/mL: Toxoplasma gondii
[2] = test system: P. falciparum 3D7 parasites; test: P. falciparum growth inhibition assay, 2-cycle (120 h treatment), delayed-death screen and dose-response; format: cell-based, Plasmodium falciparum; settings: for Pf_120h_%Growth_Rep1 / Pf_120h_%Growth_Rep2 / activity at 2 µg/mL: % growth; for activity at 2 µg/mL: Plasmodium falciparum, 3D7, 120 h
[3] = test system: P. falciparum 3D7 parasites; test: P. falciparum growth inhibition assay, 1-cycle (72 h treatment), SYBR DNA staining (library screen at 2 μg/mL and dose-response); format: cell-based, Plasmodium falciparum; settings: for Pf_72h_%Growth_Rep1 / Pf_72h_%Growth_Rep2 / activity at 2 µg/mL: % growth; for activity at 2 µg/mL: Plasmodium falciparum, 3D7, 72 h
[4] = library screen at 2 μg/mL, replicate 1
[5] = library screen at 2 μg/mL, replicate 2
[6] = library screen at 2 μg/mL, 120 h, replicate 1
[7] = library screen at 2 μg/mL, 120 h, replicate 2
[8] = library screen at 2 μg/mL, 72 h, replicate 1
[9] = library screen at 2 μg/mL, 72 h, replicate 2
[10] = T. gondii, parasite screen at 2 μg/mL, replicate 1
[11] = T. gondii, parasite screen at 2 μg/mL, replicate 2
[12] = P. falciparum 3D7, 120 h, parasite screen at 2 μg/mL, replicate 1
[13] = P. falciparum 3D7, 120 h, parasite screen at 2 μg/mL, replicate 2
[14] = P. falciparum 3D7, 72 h, parasite screen at 2 μg/mL, replicate 1
[15] = P. falciparum 3D7, 72 h, parasite screen at 2 μg/mL, replicate 2

## CO/C1=C\C(C)=C\[C@@H](C)[C@@H](O)[C@@H](C)C/C(C)=C/C=C/[C@H](OC)[C@@H]([C@@H](C)[C@@H](O)[C@H](C)[C@@]2(O)C[C@@H](OC(=O)/C=C/C(=O)NC3=C(O)CCC3=O)[C@H](C)[C@@H](C(C)C)O2)OC1=O [Bafilomycin B1]
[1]; [4]
  Tg_72h_%Growth_Rep1: -0.95%
[1]; [5]
  Tg_72h_%Growth_Rep2: 0.68%
[2]; [6]
  Pf_120h_%Growth_Rep1: 5.87%
[2]; [7]
  Pf_120h_%Growth_Rep2: 11.47%
[3]; [8]
  Pf_72h_%Growth_Rep1: 2.46%
[3]; [9]
  Pf_72h_%Growth_Rep2: 1.87%

## COc1cc(/C=C/C(=O)O)cc(OC)c1O [Sinapic acid]
[1]; T. gondii, parasite screen 2 μg/mL, replicate 1
  Tg_72h_%Growth_Rep1: 101.84%
[1]; T. gondii, parasite screen 2 μg/mL, replicate 2
  Tg_72h_%Growth_Rep2: 75.80%
[2]; P. falciparum, 120 h, parasite screen 2 μg/mL, replicate 1
  Pf_120h_%Growth_Rep1: 115.97%
[2]; P. falciparum, 120 h, parasite screen 2 μg/mL, replicate 2
  Pf_120h_%Growth_Rep2: -9.79%
[3]; P. falciparum, 72 h, 2 μg/mL, mean of both replicates, growth (% of control)
  Mean: 45.98
[3]; P. falciparum, 72 h, parasite screen 2 μg/mL, replicate 1
  Pf_72h_%Growth_Rep1: 90.37%
[3]; P. falciparum, 72 h, parasite screen 2 μg/mL, replicate 2
  Pf_72h_%Growth_Rep2: 1.58%

## CC(C)=C[C@H]1C[C@H](C)[C@]2(CC[C@]3(C)C[C@@H]4C(C)=CC(=O)[C@@H]4/C(C=O)=C\C[C@H]32)O1 [Anhydroophiobolin A]
[1]; [4]
  Tg_72h_%Growth_Rep1: 154.62%
[1]; [5]
  Tg_72h_%Growth_Rep2: 91.26%
[2]; [6]
  Pf_120h_%Growth_Rep1: 0.81%
[2]; [7]
  Pf_120h_%Growth_Rep2: -1.29%
[3]; [8]
  Pf_72h_%Growth_Rep1: 9.46%
[3]; [9]
  Pf_72h_%Growth_Rep2: 6.48%

## C/C=C(\C)C(=O)OC[C@H]1O[C@H](O[C@H]2O[C@H](COC(=O)/C(C)=C/C)[C@@H](O)[C@H](O)[C@H]2O[C@@H]2O[C@H](CO)[C@@H](OC(=O)/C(C)=C/C)[C@H](OC(=O)/C(C)=C/C)[C@H]2O)[C@H](O[C@@H]2O[C@H](CO)[C@@H](OC(=O)/C(C)=C/C)[C@H](OC(=O)/C(C)=C/C)[C@H]2O)[C@@H](O)[C@@H]1O [Actinotetraose Hexatiglate]
[1]; [4]
  Tg_72h_%Growth_Rep1: 97.33%
[1]; [5]
  Tg_72h_%Growth_Rep2: 100.02%
[2]; P. falciparum, 2 μg/mL, 120 h
  2) Growth (%) at 120 h: 19.22%
[2]; P. falciparum, growth at 72 h / growth at 120 h, 2 μg/mL
  3) Fold change (72 h/120 h): 2.4
[2]; [6]
  Pf_120h_%Growth_Rep1: 16.78%
[2]; [7]
  Pf_120h_%Growth_Rep2: 21.66%
[3]; P. falciparum, 2 μg/mL, 72 h
  1) Growth (%) at 72 h: 46.54%
[3]; [8]
  Pf_72h_%Growth_Rep1: 45.55%
[3]; [9]
  Pf_72h_%Growth_Rep2: 47.53%

## CC(=O)OCC12CC(O)C(C)=CC1OC1C(O)C(OC(C)=O)C2(C)C12CO2 (stereo not shown) [BIA-N1931]
[1]; [10]
  Tg_72h_%Growth_Rep1: 0.58%
[1]; [11]
  Tg_72h_%Growth_Rep2: -0.09%
[2]; [12]
  Pf_120h_%Growth_Rep1: 9.98%
[2]; [13]
  Pf_120h_%Growth_Rep2: 3.84%
[3]; [14]
  Pf_72h_%Growth_Rep1: 6.76%
[3]; [15]
  Pf_72h_%Growth_Rep2: -0.85%

## Cc1cc(O)c2c3c4c(cc(O)c13)C(C)(C)C(=O)c1c(O)cc(O)c(c1-4)C2=O [Resistomycin]
[1]; T. gondii, parasite screen 2 μg/mL, replicate 1, read-out: Tg_72h_%Growth_Rep1
  percent parasite growth at 2 µg/mL: 221%
[1]; T. gondii, parasite screen 2 μg/mL, replicate 2, read-out: Tg_72h_%Growth_Rep2
  percent parasite growth at 2 µg/mL: 125%
[2]; P. falciparum, 120 h, parasite screen 2 μg/mL, replicate 1, read-out: Pf_120h_%Growth_Rep1
  activity at 2 µg/mL: 78.2%
[2]; P. falciparum, 120 h, parasite screen 2 μg/mL, replicate 2, read-out: Pf_120h_%Growth_Rep2
  activity at 2 µg/mL: 130%
[3]; P. falciparum, 72 h, parasite screen 2 μg/mL, replicate 1, read-out: Pf_72h_%Growth_Rep1
  activity at 2 µg/mL: 82%
[3]; P. falciparum, 72 h, parasite screen 2 μg/mL, replicate 2, read-out: Pf_72h_%Growth_Rep2
  activity at 2 µg/mL: 102%

## CC1=C[C@@H]2/C=C(/C)CCC(=O)[C@@H](O)CCC(=O)[C@]23C(=O)N[C@@H](CC(C)C)[C@@H]3[C@@H]1C [Aspochalasin M]
[1]; [4]
  Tg_72h_%Growth_Rep1: 143.85%
[1]; [5]
  Tg_72h_%Growth_Rep2: 96.90%
[2]; [6]
  Pf_120h_%Growth_Rep1: 80.74%
[2]; [7]
  Pf_120h_%Growth_Rep2: 79.20%
[3]; [8]
  Pf_72h_%Growth_Rep1: 78.34%
[3]; [9]
  Pf_72h_%Growth_Rep2: 81.89%

## CC(C)=CC1CC(C)C2(CCC3(C)CC4C(C(=O)CC4(C)O)C(C=O)=CCC32)O1 (stereo not shown) [BIA-O1063]
[1]; [10]
  Tg_72h_%Growth_Rep1: 5.87%
[1]; [11]
  Tg_72h_%Growth_Rep2: 0.78%
[2]; [12]
  Pf_120h_%Growth_Rep1: 10.48%
[2]; [13]
  Pf_120h_%Growth_Rep2: 11.00%
[3]; [14]
  Pf_72h_%Growth_Rep1: 4.64%
[3]; [15]
  Pf_72h_%Growth_Rep2: 5.89%
